This is an account of results in patent US20210300926A1, “NEW BETA-LACTAMASE INHIBITORS TARGETING GRAM NEGATIVE BACTERIA” (priority 2017, published 2021).

One test relates to E. coli Top10. Kind of test: MIC determination by microdilution, E. coli Top10 without β-lactamase (None). The class given is cell-based. The following applies: Escherichia coli, E. coli Top10, β-lactamase None, read-out: MIC of β-lactam, inhibitor None. The source says: (§1) Plasmid and strain construction. For antibiotic susceptibility testing, the R-lactamase genes were cloned into the vector pTRC-99k, which is a derivative of pTRC99a (Pharmacia) obtained by replacing the β-lactamase resistance gene by a kanamycin resistance gene (Km, lacl, pTRC promoter, oriVcolEl; D. Mengin-Lecreulx, unpublished). Recombinant plasmids were introduced by electrotransformation into Escherichia coli Top10. For β-lactamase production, fragments of the β-lactamase genes encoding soluble enzymes, i.e. devoid of the signal peptides, were cloned into the vector pET-TEV generating translational fusions with a vector-encoded N-terminal 6×His Tag followed by a TEV cleavage site ([…]) (1).
(§2) MIC determination. MICs of β-lactams were determined by the microdilution method in MH broth according to Clinical and Laboratory Standards Institute (CLSI) recommendations (12). Diazabicyclooctane were used at a fixed concentration of 15 μM (4 μg/ml for avibactam). Clavulanate was tested at 4 μg/ml. IPTG (500 μM) was added to the microdilution plates to induce production of the -lactamase. The precultures were grown in BHI broth containing IPTG (500 μM) and kanamycin (50 μg/ml) for plasmid maintenance. Reported MICs are the medians from five biological repeats obtained in two independent experiments.
Background: Dilution methods test growth across graded concentrations, often in twofold steps.

Test [1] concerns E. coli Top10 producing AmpCEcl. The experiment in a line: MIC determination by microdilution, E. coli Top10 producing AmpCEcl. The class given is cell-based. To be noted: Escherichia coli, read-out: MIC of β-lactam, inhibitor None.
Text: as §1, §2

The subject of test [2] is E. coli Top10 producing TEM-1. Kind of test: MIC determination by microdilution, E. coli Top10 producing TEM-1. To be noted: Escherichia coli, read-out: MIC of β-lactam, inhibitor None. The class given is cell-based.
Text: as §1, §2

Test [3] concerns E. coli Top10 producing KPC-2. In kind it is cell-based, Escherichia coli. The following applies: summary of Table 1.
Test [4] deals with E. coli Top10 producing CTX-M15. The experiment in a line: MIC determination by microdilution, E. coli Top10 producing CTX-M15. To be noted: E. coli Top10 producing CTX-M-15; summary of Table 1. In kind it is cell-based, Escherichia coli.
Text: as §1, §2

A further test addresses T1, KPC-2 (Klebsiella pneumoniae, UniProt Q9F663).
T1 construct: fragments of the β-lactamase genes encoding soluble enzymes, i.e. devoid of the signal peptides; 6xHis tag followed by TEV cleavage site ([…]) (N); made in house; host or cells: E. coli BL21 (DE3)
Kind of test: Kinetic parameters of β-lactamase carbamoylation/de-carbamoylation (nitrocefin), KPC-2. The class given is biochemical. The following applies: KPC-2; 20° C., nitrocefin 100 μM, MES pH 6.4.
Text: as §1
(§3) Production and purification of β-lactamases. E. coli BL21 (DE3) harboring recombinant plasmids were grown in brain heart infusion (BHI) broth supplemented with kanamycin (50 μg/ml) at 37° C. under vigorous shaking until the optical density at 600 nm (OD600) reached 0.8. Isopropyl β-D-1-thiogalactopyranoside IPTG (0.5 mM) was added and incubation was continued at 16° C. for 18 h. Bacteria were harvested by centrifugation, re-suspended in 25 mM Tris-HCl (pH 7.5) containing 300 mM NaCl (buffer A) and lysed by sonication. The enzymes were purified from clarified lysates by affinity chromatography (NiNTA agarose, Sigma-Aldrich) and size exclusion chromatography in buffer A (Superdex 200 HL26/60, Amersham Pharmacia Biotech). Protein concentration was determined by the Biorad protein assay using bovine serum albumin as a standard.
(§4) Determination of kinetic parameters. […] Briefly, the initial velocity (vi) was determined by spectrophotometry for various concentrations of β-lactams [S] and a fixed concentration of β-lactamase [E]. The values of vi were plotted as a function of [S]. The kinetic constants Km and kcat were determined by fitting the equation […] to the resulting curve. The molecular extinction coefficient was 14,600 M^−1 cm^−1 at 486 nm for nitrocefin. […] Kinetics constants were deduced from a minimum of 6 progress curves obtained in a minimum of two independent experiments.

Another test has as its target T2, CTX-M-15 (Escherichia coli, UniProt Q9EXV5).
T2 construct: fragments of the β-lactamase genes encoding soluble enzymes, i.e. devoid of the signal peptides; made in house; host or cells: E. coli BL21 (DE3)
Kind of test: Kinetic parameters of β-lactamase carbamoylation/de-carbamoylation (nitrocefin), CTX-M-15. To be noted: CTX-M-15; 20° C., nitrocefin 100 μM, MES pH 6.4. In kind it is biochemical.
Text: as §1, §3, §4

The next test deals with T3, TEM-1 (Escherichia coli, UniProt P62593).
T3 construct: fragments of the β-lactamase genes encoding soluble enzymes, i.e. devoid of the signal peptides; made in house; host or cells: E. coli BL21 (DE3)
T3 sequence (P62593 24-286 limits assumed): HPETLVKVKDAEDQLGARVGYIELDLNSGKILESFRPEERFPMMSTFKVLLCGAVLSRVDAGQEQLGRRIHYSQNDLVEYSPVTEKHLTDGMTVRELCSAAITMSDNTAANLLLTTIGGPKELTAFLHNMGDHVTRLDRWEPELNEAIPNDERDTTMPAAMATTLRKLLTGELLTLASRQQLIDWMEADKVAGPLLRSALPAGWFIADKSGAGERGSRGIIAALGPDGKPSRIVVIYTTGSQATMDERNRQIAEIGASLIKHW
Kind of test: Kinetic parameters of β-lactamase carbamoylation/de-carbamoylation (nitrocefin), TEM-1. In kind it is biochemical. To be noted: 20° C., nitrocefin 100 μM, MES pH 6.4.
Text: as §1, §3, §4

The target of the next test is T4, AmpCEclo (Enterobacter cloacae, UniProt P05364).
T4 construct: fragments of the β-lactamase genes encoding soluble enzymes, i.e. devoid of the signal peptides; 6xHis tag followed by TEV cleavage site ([…]) (N); made in house; host or cells: E. coli BL21 (DE3)
T4 sequence (P05364 21-381): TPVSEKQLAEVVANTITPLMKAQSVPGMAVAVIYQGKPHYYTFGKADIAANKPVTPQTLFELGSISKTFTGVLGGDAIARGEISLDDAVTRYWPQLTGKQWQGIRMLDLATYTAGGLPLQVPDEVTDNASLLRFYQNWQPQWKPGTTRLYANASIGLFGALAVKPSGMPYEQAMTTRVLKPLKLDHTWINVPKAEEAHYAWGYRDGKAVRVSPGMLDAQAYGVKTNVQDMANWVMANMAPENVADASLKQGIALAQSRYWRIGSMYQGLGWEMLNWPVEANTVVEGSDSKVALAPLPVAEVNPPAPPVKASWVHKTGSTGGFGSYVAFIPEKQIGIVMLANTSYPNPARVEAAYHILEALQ
In kind it is biochemical. The following applies: AmpCEclo; 20° C., nitrocefin 100 μM, MES pH 6.4. As to the method: as §3, §4

Test [5] concerns E. coli Top10 producing OXA-48. Kind of test: MIC determination by microdilution, E. coli Top10 producing OXA-48. The class given is cell-based. The following applies: Escherichia coli, read-out: MIC of β-lactam, inhibitor None.
Text: as §1, §2

Like-named read-outs stand apart in the source and are kept apart here.

T1 sequence (Q9F663 25-293 limits assumed): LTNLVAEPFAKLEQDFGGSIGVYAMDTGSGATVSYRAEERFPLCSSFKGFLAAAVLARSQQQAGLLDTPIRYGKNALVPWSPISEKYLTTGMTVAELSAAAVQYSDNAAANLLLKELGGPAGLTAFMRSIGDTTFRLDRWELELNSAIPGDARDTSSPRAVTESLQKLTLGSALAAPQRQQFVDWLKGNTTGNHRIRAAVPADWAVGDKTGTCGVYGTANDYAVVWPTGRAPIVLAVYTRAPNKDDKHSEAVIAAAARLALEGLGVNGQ
T2 sequence (Q9EXV5 entry or part of it): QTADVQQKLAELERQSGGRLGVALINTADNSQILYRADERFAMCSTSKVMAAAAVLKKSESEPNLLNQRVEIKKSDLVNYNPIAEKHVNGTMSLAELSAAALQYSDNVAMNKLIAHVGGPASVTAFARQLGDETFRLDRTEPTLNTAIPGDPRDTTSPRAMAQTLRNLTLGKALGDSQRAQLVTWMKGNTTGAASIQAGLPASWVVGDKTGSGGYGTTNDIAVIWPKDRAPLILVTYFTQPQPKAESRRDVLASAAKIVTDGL

Broadly, the MIC is the smallest concentration in the dilution series that meets the test's criterion for growth inhibition. `CO/N=C(\C(=O)N[C@@H]1C(=O)N2C(C(=O)O)=C(COC(C)=O)CS[C@H]12)c1csc(N)n1` [Cefotaxime]: the MIC is 0.12 µg/mL with E. coli Top10 (Cefotaxime alone) and 128 µg/mL in [1].

Turning to `Cn1nnnc1SCC1=C(C(=O)O)N2C(=O)[C@@H](NC(=O)[C@H](O)c3ccccc3)[C@H]2SC1` [Cefamandole], the MIC with E. coli Top10 (Cefamandole alone) was 2 µg/mL; in test [2], above 2050 µg/mL.

For the compound `COCc1cn(C[C@@H]2CC[C@@H]3CN2C(=O)N3OS(=O)(=O)[O-])nn1.[Na+]` [Compound 1a.i13], the “reduction in the MICs of β-lactams (in words)” value in test [3] and in test [4] was “Minor reduction” each time. The “Carbamoylation efficacy of β-lactamases by diazabicyclooctanes” value at KPC-2 is reported as “(1.8 ± 0.2) × 10^1 M^−1 s^−1”; on CTX-M-15 it was “(1.2 ± 0.4) × 10^2 M^−1 s^−1”; on TEM-1 it was “(8.3 ± 0.5) × 10^2 M^−1 s^−1”; on AmpCEclo, “(1.5 ± 0.5) × 10^1 M^−1 s^−1”. Further, the “De-carbamoylation rate constant k−2 for β-lactamase-diazabicyclooctane adducts” value on KPC-2 was “(1.2 ± 0.1) × 10^−3 s−1”; on CTX-M-15, “(1.3 ± 1.3) × 10^−3 s−1”; at TEM-1, “(1.6 ± 0.5) × 10^−3 s−1”; on AmpCEclo, “(1.3 ± 0.6) × 10^−3 s−1”.

With `C[C@@H](O)[C@H]1C(=O)N2C(C(=O)O)=C(S[C@@H]3CN[C@H](C(=O)Nc4cccc(C(=O)O)c4)C3)[C@H](C)[C@H]12` [Ertapenem], the minimal inhibitory concentration (MIC) with E. coli Top10 (Ertapenem alone) was below 0.03 µg/mL; in test [5], 16 µg/mL.
